Like-named read-outs stand apart in the source and are kept apart here.
Biological target: T1, SiaT (Proteus mirabilis, UniProt B4EZY7)
T1 construct: full-length, C-terminal HRV 3C site-GFP-8xHis tag cleaved by 3C protease; reconstituted in proteoliposomes for uptake
Test: microscale thermophoresis, label-free
Assay type: binding
Settings: PBS, 0.0174% DDM

T1 sequence (B4EZY7 whole entry): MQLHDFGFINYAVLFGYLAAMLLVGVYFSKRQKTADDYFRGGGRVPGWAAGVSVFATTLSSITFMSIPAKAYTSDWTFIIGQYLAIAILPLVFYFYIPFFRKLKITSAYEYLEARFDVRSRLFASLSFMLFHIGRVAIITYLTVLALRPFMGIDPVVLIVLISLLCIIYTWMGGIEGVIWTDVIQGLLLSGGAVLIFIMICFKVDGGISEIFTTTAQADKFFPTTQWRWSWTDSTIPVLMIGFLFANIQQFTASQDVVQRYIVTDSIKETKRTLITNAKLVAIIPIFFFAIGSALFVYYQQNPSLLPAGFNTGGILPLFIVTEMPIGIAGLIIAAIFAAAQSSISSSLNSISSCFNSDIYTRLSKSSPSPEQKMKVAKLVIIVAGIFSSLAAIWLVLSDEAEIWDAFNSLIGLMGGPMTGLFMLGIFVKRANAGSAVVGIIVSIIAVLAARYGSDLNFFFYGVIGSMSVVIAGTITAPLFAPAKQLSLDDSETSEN

| SMILES | Kd | Kd (read-out: Kd^Neu5Gc) |
| --- | --- | --- |
| O=C(O)C1(O)C[C@H](O)[C@@H](O)[C@H]([C@H](O)[C@H](O)CO)O1 (some centres unmarked) [ketodeoxynonulosonic acid] | > 10000 µM | – |
| O=C(CO)N[C@H]1[C@H]([C@H](O)[C@H](O)CO)OC(O)(C(=O)O)C[C@@H]1O (some centres unmarked) [N-glycolylneuraminic acid] | – | 85 ± 2 µM |

— publication PMC5931594, “Substrate-bound outward-open structure of a Na^+-coupled sialic acid symporter reveals a new Na^+ site” (Nature Communications, 2018)
